Target: T1, δ-opioid receptor (DOR) (Mus musculus, UniProt P32300)
T1 construct: gene Oprd1; endogenous receptor on cholinergic interneurons in mouse brain slices
Test: cell-attached recording of firing inhibition reversed by SDM25N; internalization of labeled receptors
Type: cell-based

T1 sequence (P32300 whole entry): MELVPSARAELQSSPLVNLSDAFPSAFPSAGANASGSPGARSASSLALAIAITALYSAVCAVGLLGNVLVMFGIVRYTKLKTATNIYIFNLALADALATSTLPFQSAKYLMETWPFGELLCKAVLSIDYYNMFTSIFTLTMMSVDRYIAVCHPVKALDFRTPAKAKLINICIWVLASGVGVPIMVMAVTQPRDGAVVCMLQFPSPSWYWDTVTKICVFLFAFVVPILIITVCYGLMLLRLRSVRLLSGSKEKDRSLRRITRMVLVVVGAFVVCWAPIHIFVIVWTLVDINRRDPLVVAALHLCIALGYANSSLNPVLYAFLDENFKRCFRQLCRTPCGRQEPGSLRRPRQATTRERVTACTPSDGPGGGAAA

## CC(C)[C@H](NC(=O)[C@H](CCC(=O)O)NC(=O)[C@H](Cc1ccccc1)NC(=O)[C@@H](C)NC(=O)[C@@H](N)Cc1ccc(O)cc1)C(=O)N[C@H](C(=O)NCC(N)=O)C(C)C [deltorphin II]
  inhibition at 1 µM: 96.6 ± 2.7%

Source: paper PMC8718112, “Functional independence of endogenous μ- and δ-opioid receptors co-expressed in cholinergic interneurons” (eLife, 2021)
